In the test the test system is HCT116 colorectal cancer cells. Put plainly: Cisplatin sensitization assay (96 h MTS cell viability).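 Further: compound concentration needed to lower the IC50 of Cisplatin alone by a set fold.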 Format: cell-based. The note with it: Cisplatin sensitization value. The method in brief:
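The MTS viability read, after 1 h with reagent, followed 96 h of co-treatment at 37° C. in 5% CO2. Both compound and cisplatin were titrated 2-fold from a 10 μM top final concentration in a complete concentration matrix on HCT116 cells. Scores +++/++/+ reflect cisplatin sensitization value ranges.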

`Nc1nn2cc(F)cnc2c1C(=O)Nc1cncc(F)c1N1CCN(C(=O)C2CNCCO2)CC1` (stereo not shown) [I-N-172, 2-amino-6-fluoro-N-(5-fluoro-4-(4-(morpholine-2-carbonyl)piperazin-1-yl)pyridin-3-yl)pyrazolo[1,5-a]pyrimidine-3-carboxamide]: the “Cisplatin Sensitization Assay” value is given as “+++ (Compounds with a Cisplatin sensitization value of <0.02 μM are marked with “+++.”)”.
Under `Nc1nn2cc(F)cnc2c1C(=O)Nc1cnccc1N1CCN(S(=O)(=O)C2CCOCC2)CC1` [I-N-177, 2-amino-6-fluoro-N-(4-(4-((tetrahydro-2H-pyran-4-yl)sulfonyl)piperazin-1-yl)pyridin-3-yl)pyrazolo[1,5-a]pyrimidine-3-carboxamide] stands “+++ (Compounds with a Cisplatin sensitization value of <0.02 μM are marked with “+++.”)”; under `CS(=O)(=O)C1CCCN(c2ccncc2NC(=O)c2c(N)nn3cc(F)cnc23)C1` (stereo not shown) [I-N-221, 2-amino-6-fluoro-N-(4-(3-(methylsulfonyl)piperidin-1-yl)pyridin-3-yl)pyrazolo[1,5-a]pyrimidine-3-carboxamide], “++ (Compounds with a Cisplatin sensitization value >0.02 μM but <0.2 μM are marked with “++.”)”.
`Nc1nn2cc(Cl)cnc2c1C(=O)Nc1cnccc1C1CCN(C2COC2)CC1` [I-C-11, 2-amino-6-chloro-N-(4-(1-(oxetan-3-yl)piperidin-4-yl)pyridin-3-yl)pyrazolo[1,5-a]pyrimidine-3-carboxamide]: the “Cisplatin Sensitization Assay” value is “+++ (Compounds with a Cisplatin sensitization value of <0.02 μM are marked with “+++.”)”.
For `CN1CCN(c2c(F)cncc2NC(=O)c2c(N)nn3cc(CC#N)cnc23)CC1` [I-N-80, 2-amino-6-(cyanomethyl)-N-(5-fluoro-4-(4-methylpiperazin-1-yl)pyridin-3-yl)pyrazolo[1,5-a]pyrimidine-3-carboxamide], the “Cisplatin Sensitization Assay” value is recorded as “++ (Compounds with a Cisplatin sensitization value >0.02 μM but <0.2 μM are marked with “++.”)”.
To `Nc1nn2cc(F)cnc2c1C(=O)Nc1cncc(F)c1N1CCC(C(=O)NCCN2CCC2)CC1` [I-G-42, 2-amino-N-(4-(4-((2-(azetidin-1-yl)ethyl)carbamoyl)piperidin-1-yl)-5-fluoropyridin-3-yl)-6-fluoropyrazolo[1,5-a]pyrimidine-3-carboxamide] belongs “+++ (Compounds with a Cisplatin sensitization value of <0.02 μM are marked with “+++.”)”.
On to `N#CCc1cnc2c(C(=O)Nc3cnccc3N3CCCC3)c(N)nn2c1` [I-N-77, 2-amino-6-(cyanomethyl)-N-(4-(pyrrolidin-1-yl)pyridin-3-yl)pyrazolo[1,5-a]pyrimidine-3-carboxamide], for which the “Cisplatin Sensitization Assay” value was “+ (Compounds with a Cisplatin sensitization value >0.2 μM but <5 μM are marked with “+.”)”.
On to `Nc1nn2cc(F)cnc2c1C(=O)Nc1cnccc1O[C@H]1Cc2nccn2C1` [I-O-16, (S)-2-amino-N-(4-((6,7-dihydro-5H-pyrrolo[1,2-a]imidazol-6-yl)oxy)pyridin-3-yl)-6-fluoropyrazolo[1,5-a]pyrimidine-3-carboxamide], for which the “Cisplatin Sensitization Assay” value is recorded as “+++ (Compounds with a Cisplatin sensitization value of <0.02 μM are marked with “+++.”)”.
Turning to `CN(C)CCOc1ccncc1NC(=O)c1c(N)nn2cc(CC#N)cnc12` [I-O-24, 2-amino-6-(cyanomethyl)-N-(4-(2-(dimethylamino)ethoxy)pyridin-3-yl)pyrazolo[1,5-a]pyrimidine-3-carboxamide], the “Cisplatin Sensitization Assay” value was “++ (Compounds with a Cisplatin sensitization value >0.02 μM but <0.2 μM are marked with “++.”)”.
In the case of `Nc1nn2cc(F)cnc2c1C(=O)Nc1cncc(F)c1N1CCN2C(=O)CCCC2C1` (stereo not shown) [I-N-277, 2-amino-6-fluoro-N-(5-fluoro-4-(6-oxohexahydro-1H-pyrido[1,2-a]pyrazin-2(6H)-yl)pyridin-3-yl)pyrazolo[1,5-a]pyrimidine-3-carboxamide], the “Cisplatin Sensitization Assay” value is on record as “+++ (Compounds with a Cisplatin sensitization value of <0.02 μM are marked with “+++.”)”.

(Values after US11117900B2 (Vertex Pharmaceuticals Incorporated, priority 2012, dated 2021).)
